The source of these data is PMC5218480 (PLoS ONE, 2017).

The assay relates to MV-4-11 cells. Put plainly: Gene expression microarray analysis (Affymetrix PrimeView) and GSEA. The settings on record: MV-4-11 cells, 48 hours. On the set-up: RFU PODN (11730768_x_at) / Fold change /veh PODN (11730768_x_at) / RFU LINC00158 (11744669_a_at) / Fold change /veh LINC00158 (11744669_a_at) / RFU DUSP10 (11751237_a_at) / Fold change /veh DUSP10 (11751237_a_at) / RFU ID3 (11757404_x_at) / Fold change /veh ID3 (11757404_x_at) / RFU PLEKHG5 (11737974_s_at) / Fold change /veh PLEKHG5 (11737974_s_at) / RFU LRRC4B (11730491_at) / Fold change /veh LRRC4B (11730491_at) / RFU GIMAP4 (11747438_a_at) / Fold change /veh GIMAP4 (11747438_a_at) / RFU KRT8 (11758183_x_at) / Fold change /veh KRT8 (11758183_x_at) / RFU CNN1 (11734310_a_at) / Fold change /veh CNN1 (11734310_a_at) / RFU VPS37D (11726825_at) / Fold change /veh VPS37D (11726825_at) / RFU C10orf10 (11716522_x_at) / Fold change /veh C10orf10 (11716522_x_at) / RFU KIR2DL2 /// KIR2DL4 /// KIR2DL5A /// KIR2DL5B /// KIR2DS1 /// KIR2DS2 /// KIR2DS3 /// KIR2DS4 /// KIR3DL3 /// KIR3DL3 /// KIR3DS1 (11738374_at) / Fold change /veh KIR2DL2 /// KIR2DL4 /// KIR2DL5A /// KIR2DL5B /// KIR2DS1 /// KIR2DS2 /// KIR2DS3 /// KIR2DS4 /// KIR3DL3 /// KIR3DL3 /// KIR3DS1 (11738374_at) / RFU C1QL1 (11718748_at) / Fold change /veh C1QL1 (11718748_at) / RFU TMPRSS4 (11747572_a_at) / Fold change /veh TMPRSS4 (11747572_a_at) / RFU HAMP (11756126_x_at) / Fold change /veh HAMP (11756126_x_at) / RFU RNFT2 (11725882_a_at) / Fold change /veh RNFT2 (11725882_a_at) / RFU NR4A2 (11747474_a_at) / Fold change /veh NR4A2 (11747474_a_at) / RFU ABCC12 (11746883_a_at) / Fold change /veh ABCC12 (11746883_a_at) / RFU TMEM136 (11760407_x_at) / Fold change /veh TMEM136 (11760407_x_at) / RFU CLDN22 /// WWC2 (11732394_at) / Fold change /veh CLDN22 /// WWC2 (11732394_at) / RFU HLA-DPB1 (11760878_x_at) / Fold change /veh HLA-DPB1 (11760878_x_at) / RFU SPINT1 (11716480_a_at) / Fold change /veh SPINT1 (11716480_a_at) / RFU GAP43 (11754022_s_at) / Fold change /veh GAP43 (11754022_s_at) / RFU A4GNT (11735810_at) / Fold change /veh A4GNT (11735810_at) / RFU PRB3 (11715151_x_at) / Fold change /veh PRB3 (11715151_x_at) / RFU TUBB4B (11761932_at) / Fold change /veh TUBB4B (11761932_at) / RFU CAPN14 (11732068_a_at) / Fold change /veh CAPN14 (11732068_a_at) / RFU TMCC2 (11721928_a_at) / Fold change /veh TMCC2 (11721928_a_at) / RFU IRGQ (11745062_a_at) / Fold change /veh IRGQ (11745062_a_at) / RFU FAM174B (11720279_a_at) / Fold change /veh FAM174B (11720279_a_at) / RFU TMPRSS4 (11748680_a_at) / Fold change /veh TMPRSS4 (11748680_a_at) / RFU FAM212B (11763350_a_at) / Fold change /veh FAM212B (11763350_a_at) / RFU PLEKHG5 (11743358_a_at) / Fold change /veh PLEKHG5 (11743358_a_at) / RFU ZSCAN30 (11745921_a_at) / Fold change /veh ZSCAN30 (11745921_a_at) / RFU CMKLR1 (11741424_a_at) / Fold change /veh CMKLR1 (11741424_a_at) / RFU LOC101060620 /// MAPK8IP1 (11723275_at) / Fold change /veh LOC101060620 /// MAPK8IP1 (11723275_at) / RFU SPTSSB (11747773_x_at) / Fold change /veh SPTSSB (11747773_x_at) / RFU PRSS12 (11739890_at) / Fold change /veh PRSS12 (11739890_at) / RFU BIN1 (11741810_x_at) / Fold change /veh BIN1 (11741810_x_at) / RFU WNT11 (11732464_a_at) / Fold change /veh WNT11 (11732464_a_at) / RFU C10orf10 (11716521_a_at) / Fold change /veh C10orf10 (11716521_a_at) / RFU C5orf56 (11738089_at) / Fold change /veh C5orf56 (11738089_at) / RFU CYB561 (11721691_x_at) / Fold change /veh CYB561 (11721691_x_at) / RFU ANKRD19P (11752326_a_at) / Fold change /veh ANKRD19P (11752326_a_at) / RFU OR2T12 /// OR2T33 /// OR2T8 (11738714_s_at) / Fold change /veh OR2T12 /// OR2T33 /// OR2T8 (11738714_s_at) / RFU VCAN (11748164_a_at) / Fold change /veh VCAN (11748164_a_at) / RFU JSRP1 (11732532_at) / Fold change /veh JSRP1 (11732532_at) / RFU KRTAP10-11 (11738290_x_at) / Fold change /veh KRTAP10-11 (11738290_x_at) / RFU MYO3A (11730013_a_at) / Fold change /veh MYO3A (11730013_a_at) / RFU EBF3 (11725865_a_at) / Fold change /veh EBF3 (11725865_a_at) / RFU CAMK2N1 (11719241_x_at) / Fold change /veh CAMK2N1 (11719241_x_at) / RFU C5orf56 (11738088_a_at) / Fold change /veh C5orf56 (11738088_a_at) / RFU OLFML3 (11715873_a_at) / Fold change /veh OLFML3 (11715873_a_at) / RFU LOC100653217 /// NTM (11731650_a_at) / Fold change /veh LOC100653217 /// NTM (11731650_a_at) / RFU MAPK11 (11762145_a_at) / Fold change /veh MAPK11 (11762145_a_at) / RFU FIZ1 (11724087_x_at) / Fold change /veh FIZ1 (11724087_x_at) / RFU OASL (11726364_x_at) / Fold change /veh OASL (11726364_x_at) / RFU SOX15 (11748057_x_at) / Fold change /veh SOX15 (11748057_x_at) / RFU CD79A (11719716_a_at) / Fold change /veh CD79A (11719716_a_at) / RFU HIST1H1D (11736915_at) / Fold change /veh HIST1H1D (11736915_at) / RFU CASKIN2 (11723855_a_at) / Fold change /veh CASKIN2 (11723855_a_at) / RFU LOC730098 (11760151_x_at) / Fold change /veh LOC730098 (11760151_x_at) / RFU OR4N2 (11742367_at) / Fold change /veh OR4N2 (11742367_at) / RFU PRRT2 (11749266_a_at) / Fold change /veh PRRT2 (11749266_a_at) / RFU SNX32 (11753110_a_at) / Fold change /veh SNX32 (11753110_a_at) / RFU CDHR5 (11726645_a_at) / Fold change /veh CDHR5 (11726645_a_at) / RFU RCAN1 (11760418_a_at) / Fold change /veh RCAN1 (11760418_a_at) / RFU FAM167A (11723789_a_at) / Fold change /veh FAM167A (11723789_a_at) / RFU FAM26E (11764081_at) / Fold change /veh FAM26E (11764081_at) / RFU ISYNA1 (11749810_s_at) / Fold change /veh ISYNA1 (11749810_s_at) / RFU ACY1 (11761880_at) / Fold change /veh ACY1 (11761880_at) / RFU 11764098_at / Fold change /veh 11764098_at / RFU SAMD14 (11745864_x_at) / Fold change /veh SAMD14 (11745864_x_at) / RFU NPB (11741838_a_at) / Fold change /veh NPB (11741838_a_at) / RFU TMPRSS6 (11731388_a_at) / Fold change /veh TMPRSS6 (11731388_a_at) / RFU KRTAP10-2 (11738614_at) / Fold change /veh KRTAP10-2 (11738614_at) / RFU ARHGAP8 /// PRR5-ARHGAP8 (11727945_x_at) / Fold change /veh ARHGAP8 /// PRR5-ARHGAP8 (11727945_x_at) / RFU KRTAP5-7 /// NADSYN1 (11734609_at) / Fold change /veh KRTAP5-7 /// NADSYN1 (11734609_at) / RFU RASL12 (11751679_a_at) / Fold change /veh RASL12 (11751679_a_at) / RFU CDKN2B (11736163_a_at) / Fold change /veh CDKN2B (11736163_a_at) / RFU PRF1 (11729649_at) / Fold change /veh PRF1 (11729649_at) / RFU, ZNF638 /// ZNF638-IT1 / Fold change vs veh, ZNF638 /// ZNF638-IT1 / RFU, PANK3 / Fold change vs veh, PANK3 / RFU, SH3YL1 / Fold change vs veh, SH3YL1 / RFU, ZEB2 / Fold change vs veh, ZEB2 / RFU, NRIP1 / Fold change vs veh, NRIP1 / RFU, PTTG1IP / Fold change vs veh, PTTG1IP / RFU, CAPN2 / Fold change vs veh, CAPN2 / RFU, MED14 / Fold change vs veh, MED14 / RFU, SNORA58 / Fold change vs veh, SNORA58 / RFU, C1orf63 / Fold change vs veh, C1orf63 / RFU, LRRFIP1 / Fold change vs veh, LRRFIP1 / RFU, NDUFAF7 / Fold change vs veh, NDUFAF7 / RFU, SLC12A2 / Fold change vs veh, SLC12A2 / RFU, IBTK / Fold change vs veh, IBTK / RFU, ESF1 / Fold change vs veh, ESF1 / Fold change vs veh, TMEM50B / RFU, TAOK1 / Fold change vs veh, TAOK1 / RFU, ACBD3 / Fold change vs veh, ACBD3 / RFU, TMA16 / Fold change vs veh, TMA16 / RFU, RWDD3 / Fold change vs veh, RWDD3 / RFU, BCAT1 / Fold change vs veh, BCAT1 / RFU, EDEM3 / Fold change vs veh, EDEM3 / RFU, TMEM33 / Fold change vs veh, TMEM33 / RFU, WDR75 / Fold change vs veh, WDR75 / RFU, AHCTF1 / Fold change vs veh, AHCTF1 / RFU, TFRC / Fold change vs veh, TFRC / RFU, ZDHHC17 / Fold change vs veh, ZDHHC17 / RFU, NOM1 / Fold change vs veh, NOM1 / RFU, ARL8B / Fold change vs veh, ARL8B / RFU, ZBTB11 / Fold change vs veh, ZBTB11 / RFU, TAMM41 / Fold change vs veh, TAMM41 / RFU, KIAA1704 /// LOC100996395 / Fold change vs veh, KIAA1704 /// LOC100996395 / RFU, ING1 / Fold change vs veh, ING1 / RFU, TRMT61B / Fold change vs veh, TRMT61B / RFU, FUBP3 / Fold change vs veh, FUBP3 / RFU, TP53 / Fold change vs veh, TP53 / RFU, TNKS2 / Fold change vs veh, TNKS2 / RFU, ZFP14 / Fold change vs veh, ZFP14 / RFU, ACTR2 / Fold change vs veh, ACTR2 / RFU, PPP3R1 / Fold change vs veh, PPP3R1 / RFU, PIK3R1 / Fold change vs veh, PIK3R1 / RFU, HNRNPA1 / Fold change vs veh, HNRNPA1 / RFU, RNF170 / Fold change vs veh, RNF170 / RFU, ZNF28 / Fold change vs veh, ZNF28 / RFU, RNGTT / Fold change vs veh, RNGTT / RFU, OGT / Fold change vs veh, OGT / RFU, BRD1 / Fold change vs veh, BRD1 / RFU, MARS / Fold change vs veh, MARS / RFU, ZNF655 / Fold change vs veh, ZNF655 / RFU, FAHD1 / Fold change vs veh, FAHD1 / RFU, BDP1 / Fold change vs veh, BDP1 / RFU, LRRCC1 / Fold change vs veh, LRRCC1 / RFU, ARID1A / Fold change vs veh, ARID1A / RFU, ZNF146 / Fold change vs veh, ZNF146 / RFU, ZNF330 / Fold change vs veh, ZNF330 / RFU, GPN3 / Fold change vs veh, GPN3 / RFU, C9orf123 / Fold change vs veh, C9orf123 / RFU, N4BP2L2 / Fold change vs veh, N4BP2L2 / RFU, ARFIP1 / Fold change vs veh, ARFIP1 / RFU, FAM179B / Fold change vs veh, FAM179B / RFU, BCL10 / Fold change vs veh, BCL10 / RFU, UHRF1BP1L / Fold change vs veh, UHRF1BP1L / RFU, BET1 / Fold change vs veh, BET1 / RFU, CNOT2 / Fold change vs veh, CNOT2 / RFU, ZNF268 / Fold change vs veh, ZNF268 / Fold change vs veh, ZNF507 / RFU, DGCR2 / Fold change vs veh, DGCR2 / RFU, WDSUB1 / Fold change vs veh, WDSUB1 / Fold change vs veh, HSP90B1 /// MIR3652 / RFU, ADSS / Fold change vs veh, ADSS / RFU, GK / Fold change vs veh, GK / RFU, ZNF148 / Fold change vs veh, ZNF148 / RFU, TAF9 / Fold change vs veh, TAF9 / RFU, SLC1A5 / Fold change vs veh, SLC1A5 / RFU, SLMO2 / Fold change vs veh, SLMO2 / RFU, ABCC4 / Fold change vs veh, ABCC4 / RFU, LOC101060439 /// RAP1B / Fold change vs veh, LOC101060439 /// RAP1B / RFU, RFX7 / Fold change vs veh, RFX7 / RFU, GTPBP10 / Fold change vs veh, GTPBP10 / RFU, CNEP1R1 / Fold change vs veh, CNEP1R1 / RFU, BIVM-ERCC5 /// ERCC5 / Fold change vs veh, BIVM-ERCC5 /// ERCC5 / RFU, ILF3 / Fold change vs veh, ILF3 / RFU 11762660_at / Fold change /veh 11762660_at / RFU VCAN (11757783_s_at) / Fold change /veh VCAN (11757783_s_at) / RFU DDX43 (11728927_at) / Fold change /veh DDX43 (11728927_at) / RFU KRT8 (11758188_x_at) / Fold change /veh KRT8 (11758188_x_at) / RFU NKD1 (11759106_at) / Fold change /veh NKD1 (11759106_at) / RFU SRD5A1 (11742802_a_at) / Fold change /veh SRD5A1 (11742802_a_at) / RFU TPSAB1 /// TPSB2 (11721975_s_at) / Fold change /veh TPSAB1 /// TPSB2 (11721975_s_at) / RFU GSTM3 (11746129_a_at) / Fold change /veh GSTM3 (11746129_a_at) / RFU IL23R (11737362_x_at) / Fold change /veh IL23R (11737362_x_at) / RFU TMEM51 (11727254_a_at) / Fold change /veh TMEM51 (11727254_a_at) / RFU PIWIL2 (11732686_x_at) / Fold change /veh PIWIL2 (11732686_x_at) / RFU ORM1 (11744905_x_at) / Fold change /veh ORM1 (11744905_x_at) / RFU CCDC152 (11743942_at) / Fold change /veh CCDC152 (11743942_at) / RFU ECM1 (11717891_a_at) / Fold change /veh ECM1 (11717891_a_at) / RFU IL23R (11748794_a_at) / Fold change /veh IL23R (11748794_a_at) / RFU TNFAIP8L3 (11732012_x_at) / Fold change /veh TNFAIP8L3 (11732012_x_at) / RFU MBOAT4 (11741988_at) / Fold change /veh MBOAT4 (11741988_at) / RFU 11764193_at / Fold change /veh 11764193_at / RFU TMEM53 (11763286_at) / Fold change /veh TMEM53 (11763286_at) / RFU MAGEB2 (11727129_at) / Fold change /veh MAGEB2 (11727129_at) / RFU TMEM200A (11744735_a_at) / Fold change /veh TMEM200A (11744735_a_at) / RFU CCDC152 (11751479_a_at) / Fold change /veh CCDC152 (11751479_a_at) / RFU FAM211A (11726209_a_at) / Fold change /veh FAM211A (11726209_a_at) / RFU RGS16 (11746705_a_at) / Fold change /veh RGS16 (11746705_a_at) / RFU VCAN (11755009_s_at) / Fold change /veh VCAN (11755009_s_at) / RFU RHOB (11743442_s_at) / Fold change /veh RHOB (11743442_s_at) / RFU RGS16 (11720943_a_at) / Fold change /veh RGS16 (11720943_a_at) / RFU RGS16 (11720944_at) / Fold change /veh RGS16 (11720944_at) / RFU, VPS4B / Fold change vs veh, VPS4B / RFU, CREB1 / Fold change vs veh, CREB1 / RFU, DNAJC13 / Fold change vs veh, DNAJC13 / RFU, GNAQ / Fold change vs veh, GNAQ / RFU, CDK5R1 / Fold change vs veh, CDK5R1 / RFU, ZRANB3 / Fold change vs veh, ZRANB3 / RFU, CUL4A / Fold change vs veh, CUL4A / RFU, CCNY / Fold change vs veh, CCNY / RFU, UFL1 / Fold change vs veh, UFL1 / RFU, COG3 / Fold change vs veh, COG3 / RFU, DIAPH2 / Fold change vs veh, DIAPH2 / RFU, SKA2 / Fold change vs veh, SKA2 / RFU, AFF3 / Fold change vs veh, AFF3 / RFU, LMF1 / Fold change vs veh, LMF1 / RFU, IPO11 / Fold change vs veh, IPO11 / RFU, DFFB / Fold change vs veh, DFFB / RFU, FOXP1 / Fold change vs veh, FOXP1 / RFU, CARD8 / Fold change vs veh, CARD8 / RFU, STRN3 / Fold change vs veh, STRN3 / RFU, ADK / Fold change vs veh, ADK / RFU, RASSF2 / Fold change vs veh, RASSF2 / RFU, WIPF1 / Fold change vs veh, WIPF1 / RFU, LARP1B / Fold change vs veh, LARP1B / RFU, RASA1 / Fold change vs veh, RASA1 / RFU, RB1 / Fold change vs veh, RB1 / RFU, PPFIA1 / Fold change vs veh, PPFIA1 / RFU, MAT2A / Fold change vs veh, MAT2A / RFU, CCT5 / Fold change vs veh, CCT5 / RFU, WDR92 / Fold change vs veh, WDR92 / RFU, CUX1 / Fold change vs veh, CUX1 / RFU, TTC7A / Fold change vs veh, TTC7A / RFU, TMEM135 / Fold change vs veh, TMEM135 / RFU, DEPTOR / Fold change vs veh, DEPTOR / RFU, CPM / Fold change vs veh, CPM / RFU, DNAJB6 / Fold change vs veh, DNAJB6 / RFU, CACNA2D3 / Fold change vs veh, CACNA2D3 / RFU, DTX4 / Fold change vs veh, DTX4 / RFU, TFCP2 / Fold change vs veh, TFCP2 / RFU, GMCL1 /// GMCL1P1 / Fold change vs veh, GMCL1 /// GMCL1P1 / RFU, AEBP2 / Fold change vs veh, AEBP2 / RFU, SNHG1 /// SNORD22 /// SNORD25 /// SNORD26 /// SNORD27 /// SNORD28 /// SNORD29 /// SNORD31 / Fold change vs veh, SNHG1 /// SNORD22 /// SNORD25 /// SNORD26 /// SNORD27 /// SNORD28 /// SNORD29 /// SNORD31 / Fold change (Aza/veh), C12orf56 (ProbeSet 11735607_a_at) / Fold change (ACY-1035/veh), C12orf56 (ProbeSet 11735607_a_at) / Fold change (Aza/veh), FGFR1OP (ProbeSet 11751329_s_at) / Fold change (ACY-1035/veh), FGFR1OP (ProbeSet 11751329_s_at) / Fold change (Aza/veh), VPS36 (ProbeSet 11739960_a_at) / Fold change (ACY-1035/veh), VPS36 (ProbeSet 11739960_a_at) / RFU SYPL1 (11715823_x_at) / Fold change /veh SYPL1 (11715823_x_at) / RFU IGFBP7 (11715501_s_at) / Fold change /veh IGFBP7 (11715501_s_at) / RFU REEP3 (11722064_at) / Fold change /veh REEP3 (11722064_at) / RFU IGLL1 (11728026_x_at) / Fold change /veh IGLL1 (11728026_x_at): dose or concentration left out as unconfirmed. Format: cell-based, human.

`Nc1ncn([C@@H]2O[C@H](CO)[C@@H](O)[C@H]2O)c(=O)n1` [azacitidine]: the “Fold change /veh FAM212B (11763350_a_at)” value was determined as 1.13.
